Data: patent US8541418B2, “Inhibitors of polo-like kinase” (Elan Pharmaceutical, Inc., priority 2009, dated 2013)

Columns and labels:
Format in all cases: biochemical
PLK1 = PLK1 (Homo sapiens, UniProt P53350); assay: PLK TR-FRET peptide assay, PLK1; details: GST-PLK1, 60 min reaction
PLK2 = PLK2 (Homo sapiens, UniProt Q9NYY3); assay: PLK TR-FRET peptide assay, PLK2; details: for IC50: PLK TR-FRET peptide assay, GST-PLK2, 60 min reaction, read-out: Plk2 IC50; for relative PLK2 activity of the enantiomers: compared with the opposite enantiomer
PLK3 = PLK3 (Homo sapiens, UniProt Q9H4B4); assay: PLK TR-FRET peptide assay, PLK3; details: GST-PLK3, 15 min reaction, read-out: Plk3 IC50
Sequence of PLK3 (Q9H4B4 whole entry): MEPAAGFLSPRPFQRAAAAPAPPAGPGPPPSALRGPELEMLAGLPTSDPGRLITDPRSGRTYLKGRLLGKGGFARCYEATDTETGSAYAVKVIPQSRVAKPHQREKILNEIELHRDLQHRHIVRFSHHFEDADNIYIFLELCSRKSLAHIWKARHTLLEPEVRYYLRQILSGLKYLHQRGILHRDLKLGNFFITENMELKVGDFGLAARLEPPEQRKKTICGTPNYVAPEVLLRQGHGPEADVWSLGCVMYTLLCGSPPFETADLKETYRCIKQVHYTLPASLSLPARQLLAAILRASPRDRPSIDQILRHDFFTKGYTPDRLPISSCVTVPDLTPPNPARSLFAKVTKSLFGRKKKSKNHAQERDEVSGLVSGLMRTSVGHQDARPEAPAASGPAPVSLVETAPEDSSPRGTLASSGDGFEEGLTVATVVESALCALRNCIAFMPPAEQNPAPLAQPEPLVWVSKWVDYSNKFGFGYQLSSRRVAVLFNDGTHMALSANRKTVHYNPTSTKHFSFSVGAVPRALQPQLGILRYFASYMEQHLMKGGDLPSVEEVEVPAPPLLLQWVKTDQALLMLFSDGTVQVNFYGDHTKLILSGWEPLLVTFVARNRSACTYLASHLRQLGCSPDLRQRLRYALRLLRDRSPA

Sequence of PLK1 (P53350 whole entry): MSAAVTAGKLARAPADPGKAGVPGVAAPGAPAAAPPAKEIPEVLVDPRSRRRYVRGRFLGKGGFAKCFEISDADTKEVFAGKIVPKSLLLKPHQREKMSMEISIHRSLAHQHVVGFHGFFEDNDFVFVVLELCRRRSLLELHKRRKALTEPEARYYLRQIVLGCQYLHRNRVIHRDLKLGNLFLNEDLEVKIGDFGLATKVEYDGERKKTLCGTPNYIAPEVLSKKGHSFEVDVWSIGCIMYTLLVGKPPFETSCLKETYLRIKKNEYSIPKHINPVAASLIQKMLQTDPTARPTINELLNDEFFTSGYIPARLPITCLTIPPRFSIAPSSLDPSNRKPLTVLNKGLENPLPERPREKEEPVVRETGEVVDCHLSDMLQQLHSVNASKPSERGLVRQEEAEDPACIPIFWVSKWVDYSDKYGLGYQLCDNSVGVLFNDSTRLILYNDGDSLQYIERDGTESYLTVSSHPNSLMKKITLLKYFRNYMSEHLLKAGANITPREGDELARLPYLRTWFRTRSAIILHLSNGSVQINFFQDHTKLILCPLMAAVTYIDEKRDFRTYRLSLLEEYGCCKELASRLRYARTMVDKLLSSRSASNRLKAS
Sequence of PLK2 (Q9NYY3 whole entry): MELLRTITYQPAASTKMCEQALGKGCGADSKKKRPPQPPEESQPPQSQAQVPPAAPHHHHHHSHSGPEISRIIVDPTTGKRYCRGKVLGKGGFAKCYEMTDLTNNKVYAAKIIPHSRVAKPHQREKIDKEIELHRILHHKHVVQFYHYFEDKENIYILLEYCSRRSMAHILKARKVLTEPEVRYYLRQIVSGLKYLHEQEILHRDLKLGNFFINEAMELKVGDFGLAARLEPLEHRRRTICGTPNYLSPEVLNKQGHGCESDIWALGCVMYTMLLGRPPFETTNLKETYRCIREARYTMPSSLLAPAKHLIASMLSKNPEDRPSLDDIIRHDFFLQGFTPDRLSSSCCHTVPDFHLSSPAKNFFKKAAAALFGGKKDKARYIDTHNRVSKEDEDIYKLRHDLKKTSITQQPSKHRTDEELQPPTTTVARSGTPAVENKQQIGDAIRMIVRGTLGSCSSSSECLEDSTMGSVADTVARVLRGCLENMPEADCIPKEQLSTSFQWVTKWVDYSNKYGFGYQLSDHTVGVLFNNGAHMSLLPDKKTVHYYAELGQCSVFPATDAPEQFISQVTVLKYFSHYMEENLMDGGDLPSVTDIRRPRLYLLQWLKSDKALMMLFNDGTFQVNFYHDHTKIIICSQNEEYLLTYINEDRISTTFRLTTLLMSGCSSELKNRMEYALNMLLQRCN

Row | Compound | IC50 (PLK1) [µM] | IC50 (PLK2) [µM] | IC50 (PLK3) [µM] | relative PLK2 activity of the enantiomers (PLK2)
1 | CC[C@@H]1C(=O)N(C)c2cnc(-n3ccnc3-c3ccc(F)c(F)c3)nc2N1C1CCC(F)(F)C1 (stereo partly drawn) [Example 237, (7R)-8-(3,3-difluorocyclopentyl)-2-(2-(3,4-difluorophenyl)-1H-imidazol-1-yl)-7-ethyl-5-methyl-7,8-dihydropteridin-6(5H)-one] | < 1 | < 1 | 1 to 10 | 
2 | CC[C@@]12CCCN1c1nc(-n3ccnc3-c3cnc4ccccc4c3)ncc1N(C)C2=O [Example 241, (S)-6a-ethyl-5-methyl-2-(2-(quinolin-3-yl)-1H-imidazol-1-yl)-6a,7,8,9-tetrahydropyrrolo[2,1-h]pteridin-6(5H)-one] | 10 to 50 | < 1 | > 50 | 
3 | CC[C@@H]1C(=O)N(C)c2cnc(-n3ccnc3-c3ccc(F)cn3)nc2N1CCC(F)(F)F [Example 244, (R)-7-ethyl-2-(2-(5-fluoropyridin-2-yl)-1H-imidazol-1-yl)-5-methyl-8-(3,3,3-trifluoropropyl)-7,8-dihydropteridin-6(5H)-one] | 10 to 50 | < 1 | > 50 | 
4 | CC[C@@]12CCCCN1c1nc(-n3ccnc3-c3cc(F)cc(F)c3)ncc1N(C)C2=O [Example 249, (S)-2-(2-(3,5-difluorophenyl)-1H-imidazol-1-yl)-6a-ethyl-5-methyl-7,8,9,10-tetrahydro-5H-pyrido[2,1-h]pteridin-6(6aH)-one] | 1 to 10 | < 1 | > 50 | more active compound
5 | CC[C@]12CCCCN1c1nc(-n3ccnc3-c3cc(F)cc(F)c3)ncc1N(C)C2=O [Example 250, (R)-2-(2-(3,5-difluorophenyl)-1H-imidazol-1-yl)-6a-ethyl-5-methyl-7,8,9,10-tetrahydro-5H-pyrido[2,1-h]pteridin-6(6aH)-one] | > 50 | > 50 | > 50 | 
6 | CC[C@@]12CCCN1c1nc(-n3ccnc3-c3cccc(OC(F)(F)F)c3)ncc1N(C)C2=O [Example 251, (S)-6a-ethyl-5-methyl-2-(2-(3-(trifluoromethoxy)phenyl)-1H-imidazol-1-yl)-6a,7,8,9-tetrahydropyrrolo[2,1-h]pteridin-6(5H)-one] | 10 to 50 | < 1 | > 50 | 
7 | CC[C@@H]1C(=O)N(C)c2cnc(-n3ccnc3-c3cccc(F)c3F)nc2N1C1CCOC1 (stereo partly drawn) [Example 253, (7R)-2-(2-(2,3-difluorophenyl)-1H-imidazol-1-yl)-7-ethyl-5-methyl-8-(tetrahydrofuran-3-yl)-7,8-dihydropteridin-6(5H)-one] | < 1 | < 1 | 1 to 10 | 
8 | CC[C@@H]1C(=O)N(C)c2cnc(-n3ccnc3-c3cccc(F)c3F)nc2N1CCC(F)(F)F [Example 254, (R)-2-(2-(2,3-difluorophenyl)-1H-imidazol-1-yl)-7-ethyl-5-methyl-8-(3,3,3-trifluoropropyl)-7,8-dihydropteridin-6(5H)-one] | < 1 | < 1 | 1 to 10 | 
9 | CC[C@@]12CCC(=O)N1c1nc(-n3ccnc3-c3ccccc3)ncc1N(C)C2=O [Example 258, (S)-6a-ethyl-5-methyl-2-(2-phenyl-1H-imidazol-1-yl)-7,8-dihydropyrrolo[2,1-h]pteridine-6,9(5H,6aH)-dione] | > 50 | 10 to 50 | > 50 | 
10 | CC[C@@]12CCCCN1c1nc(-n3ccnc3-c3cccc(F)c3F)ncc1N(C)C2=O [Example 259, (S)-2-(2-(2,3-difluorophenyl)-1H-imidazol-1-yl)-6a-ethyl-5-methyl-7,8,9,10-tetrahydro-5H-pyrido[2,1-h]pteridin-6(6aH)-one] | 1 to 10 | < 1 | 1 to 10 | more active compound
11 | CC[C@@H]1C(=O)N(C)c2cnc(-n3ccnc3-c3ccc(F)cc3F)nc2N1C1CC(F)(F)C1 [Example 260, (R)-8-(3,3-difluorocyclobutyl)-2-(2-(2,4-difluorophenyl)-1H-imidazol-1-yl)-7-ethyl-5-methyl-7,8-dihydropteridin-6(5H)-one] | 1 to 10 | < 1 | 10 to 50 | 
12 | CC[C@]12CCCCN1c1nc(-n3ccnc3-c3cccc(F)c3F)ncc1N(C)C2=O [Example 261, (R)-2-(2-(2,3-difluorophenyl)-1H-imidazol-1-yl)-6a-ethyl-5-methyl-7,8,9,10-tetrahydro-5H-pyrido[2,1-h]pteridin-6(6aH)-one] | > 50 | 1 to 10 | > 50 | 
13 | CC[C@@]12CCCCN1c1nc(-n3ccnc3-c3ccccc3)ncc1N(C)C2=O [Example 262, (S)-6a-ethyl-5-methyl-2-(2-phenyl-1H-imidazol-1-yl)-7,8,9,10-tetrahydro-5H-pyrido[2,1-h]pteridin-6(6aH)-one] | 1 to 10 | < 1 | 1 to 10 | more active compound
14 | CC[C@]12CCCCN1c1nc(-n3ccnc3-c3ccccc3)ncc1N(C)C2=O [Example 263, (R)-6a-ethyl-5-methyl-2-(2-phenyl-1H-imidazol-1-yl)-7,8,9,10-tetrahydro-5H-pyrido[2,1-h]pteridin-6(6aH)-one] | > 50 | 10 to 50 | > 50 | 
15 | CC[C@@]12CCCCN1c1nc(-n3ccnc3-c3cccc(F)c3)ncc1N(C)C2=O [Example 264, (S)-6a-ethyl-2-(2-(3-fluorophenyl)-1H-imidazol-1-yl)-5-methyl-7,8,9,10-tetrahydro-5H-pyrido[2,1-h]pteridin-6(6aH)-one] | 1 to 10 | < 1 | 10 to 50 | more active compound
16 | CC[C@]12CCCCN1c1nc(-n3ccnc3-c3cccc(F)c3)ncc1N(C)C2=O [Example 265, (R)-6a-ethyl-2-(2-(3-fluorophenyl)-1H-imidazol-1-yl)-5-methyl-7,8,9,10-tetrahydro-5H-pyrido[2,1-h]pteridin-6(6aH)-one] | > 50 | 10 to 50 | > 50 | 
17 | CC[C@@]12CCCCN1c1nc(-n3ccnc3-c3cc(F)c(F)c(F)c3)ncc1N(C)C2=O [Example 266, (S)-6a-ethyl-5-methyl-2-(2-(3,4,5-trifluorophenyl)-1H-imidazol-1-yl)-7,8,9,10-tetrahydro-5H-pyrido[2,1-h]pteridin-6(6aH)-one] | > 50 | < 1 | > 50 | more active compound
18 | CC[C@]12CCCCN1c1nc(-n3ccnc3-c3cc(F)c(F)c(F)c3)ncc1N(C)C2=O [Example 267, (R)-6a-ethyl-5-methyl-2-(2-(3,4,5-trifluorophenyl)-1H-imidazol-1-yl)-7,8,9,10-tetrahydro-5H-pyrido[2,1-h]pteridin-6(6aH)-one] | > 50 | > 50 | > 50 | 
19 | CC[C@@H]1C(=O)N(C)c2cnc(-n3ccnc3-c3ccc(F)cc3F)nc2N1C1CCOC1 (stereo partly drawn) [Example 268, (7R)-2-(2-(2,4-difluorophenyl)-1H-imidazol-1-yl)-7-ethyl-5-methyl-8-(tetrahydrofuran-3-yl)-7,8-dihydropteridin-6(5H)-one] | 1 to 10 | < 1 | 1 to 10 | 
